ChEMBL document CHEMBL1201862, “PubChem BioAssay data set” (2004)
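Compound exposure: 48 hours, 5 concentrations, 96-well plates. GI50 marks 50% less growth.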 Calls of active or inactive are those of the source. Rule as the data show it: active = GI50 up to about 1.1 µM and inactive = higher. Residues, ends and D or L forms follow the SMILES beside them. Groups on a side chain read outwards from the residue. *: point of attachment. Cbz = O=C(OCc1ccccc1)*; Boc = CC(C)(C)OC(=O)*

Experiments:
Experiment in all cases: inhibition of tumour cell growth, NCI panel, 48 h
[1] = test system: ACHN
[2] = test system: COLO 205
[3] = test system: EKVX
[4] = test system: HCT-116
[5] = test system: HOP-62
[6] = test system: IGROV-1
[7] = test system: K562
[8] = test system: NCI-H522
[9] = test system: OVCAR-4
[10] = test system: SF-295
[11] = test system: SF-539
[12] = test system: SK-OV-3
[13] = test system: SNB-75
[14] = test system: U-251
[15] = test system: UACC-62
[16] = test system: MDA-MB-231
[17] = test system: MDA-MB-435
[18] = test system: NCI/ADR-RES
[19] = test system: PC-3

Measured: GI50

CCCCCN(CCCCC)C(=O)[C@H](CCC(=O)O)NC(=O)c1cc2ccccc2[nH]1
inactive: [1] 49.2 µM | [2] > 100 µM | [3] > 100 µM | [4] 28.3 µM | [5] 56 µM | [6] 45.4 µM | [7] 34.8 µM | [8] 20.2 µM | [9] 61 µM | [10] 57.8 µM | [11] 41.2 µM | [12] > 100 µM | [13] 32.7 µM | [14] 35.7 µM | [15] 28.1 µM

C1COCCSC2=C(SCCO1)SC(=C1SC3=C(SCCOCCOCCS3)S1)S2
inactive: [1] > 100 µM | [2] > 100 µM | [3] > 100 µM | [4] > 100 µM | [5] 82.2 µM | [6] > 100 µM | [7] > 100 µM | [8] 36.2 µM | [9] 48.2 µM | [10] 50.9 µM | [11] 34.5 µM | [12] 72.1 µM | [13] 21.7 µM | [14] 49.2 µM | [15] > 100 µM

O=C(O)\C=C/C=C/C=C/C=C/C(=O)O
inactive: [1] > 100 µM | [2] > 100 µM | [3] > 100 µM | [4] > 100 µM | [5] > 100 µM | [6] > 100 µM | [7] > 100 µM | [8] > 100 µM | [9] > 100 µM | [10] > 100 µM | [11] > 100 µM | [12] > 100 µM | [13] > 100 µM | [14] > 100 µM | [15] 90.4 µM

CC1=C(C(=O)Nc2ccc(Cl)c(Cl)c2)C(c2ccco2)C(C(=O)Nc2ccc(Cl)c(Cl)c2)=C(C)N1
inactive: [1] 5 µM | [2] 12.9 µM | [3] 14.9 µM | [4] 9.84 µM | [5] 14 µM | [6] 14.3 µM | [7] 7.06 µM | [8] 5.73 µM | [9] 12.1 µM | [10] 7.91 µM | [11] 13.8 µM | [12] 13.5 µM | [13] 13.9 µM | [14] 11 µM | [15] 12.9 µM

COc1cc2c(c(C)c1O)[C@H]1COc3ccccc3[C@H]1O2
inactive: [1] 21.2 µM | [2] 18.7 µM | [3] 12.2 µM | [4] 5.71 µM | [5] 6.59 µM | [6] 14.5 µM | [7] 4.29 µM | [8] 3.27 µM | [9] 17.5 µM | [10] 27 µM | [11] 8.41 µM | [12] 31.8 µM | [13] 3.95 µM | [14] > 10 µM | [15] 7.89 µM

Nc1cc2c(C3OC(CO)C(O)C3O)n[nH]c2c(=S)[nH]1 (configuration not stated)
inactive: [1] > 100 µM | [2] > 100 µM | [3] > 100 µM | [4] > 100 µM | [5] > 100 µM | [6] > 100 µM | [7] > 100 µM | [8] > 100 µM | [9] 92.5 µM | [10] > 100 µM | [11] > 100 µM | [12] > 100 µM | [13] > 100 µM | [14] > 100 µM | [15] > 100 µM

c1ccc(COc2cccc3cccnc23)cc1
inactive: [1] > 100 µM | [2] > 100 µM | [3] 83.9 µM | [4] 83.6 µM | [5] > 100 µM | [6] 85.7 µM | [7] 55 µM | [8] 50.9 µM | [9] 97.3 µM | [10] > 100 µM | [11] > 100 µM | [12] > 100 µM | [13] 67.9 µM | [15] 95.9 µM

CN(C)Nc1cc(=O)[nH]c(=O)[nH]1
inactive: [1] > 100 µM | [2] > 100 µM | [3] > 100 µM | [4] > 100 µM | [5] > 100 µM | [6] > 100 µM | [7] > 100 µM | [16] > 100 µM | [17] > 100 µM | [18] > 100 µM | [9] > 100 µM | [19] > 100 µM | [10] > 100 µM | [11] > 100 µM | [14] > 100 µM

CCCCOC(=O)NC(=O)c1cn(CCCOC(=O)NCCCCCCNC(=O)OCCCn2cc(C(=O)NC(=O)OCCCC)c(=O)[nH]c2=O)c(=O)[nH]c1=O
inactive: [1] > 100 µM | [2] > 100 µM | [3] > 100 µM | [4] > 100 µM | [5] > 100 µM | [6] > 100 µM | [7] > 100 µM | [8] > 100 µM | [9] > 100 µM | [10] > 100 µM | [11] > 100 µM | [12] > 100 µM | [13] > 100 µM | [14] > 100 µM | [15] > 100 µM

N#CCC(=O)Nc1ccccc1O
inactive: [1] > 100 µM | [2] > 100 µM | [3] > 100 µM | [4] > 100 µM | [5] > 100 µM | [6] > 100 µM | [7] > 100 µM | [8] > 100 µM | [9] > 100 µM | [10] > 100 µM | [11] > 100 µM | [12] > 100 µM | [13] > 100 µM | [14] > 100 µM | [15] > 100 µM

CC12C=C[C@]3(CC[C@@H]4[C@@](C)(CO)CCC[C@]4(C)C3CC1)C2 (some centres not stated)
inactive: [1] 18.1 µM | [2] 16.4 µM | [3] 24.8 µM | [4] 17.9 µM | [5] 14.6 µM | [6] 17.5 µM | [7] 17.5 µM | [8] 11.5 µM | [9] 13.6 µM | [10] 19.5 µM | [11] 16.4 µM | [12] 18.7 µM | [13] > 10 µM | [14] 16.6 µM | [15] 15.8 µM

CC(C)CC(NC(=O)OCc1ccccc1)C(=O)NCCCCC(NC(=O)C(CCCCNC(=O)C(CC(C)C)NC(=O)OCc1ccccc1)NC(=O)C(CCCCNC(=O)C(CC(C)C)NC(=O)OCc1ccccc1)NC(=O)C(CCCCNC(=O)C(CC(C)C)NC(=O)OCc1ccccc1)NC(=O)OC(C)(C)C)C(=O)O (configuration not stated) (Boc-K([Leu-Cbz])K([Leu-Cbz])K([Leu-Cbz])K([Leu-Cbz])-OH; configuration not given here)
inactive: [1] > 25 µM | [4] > 25 µM | [5] > 25 µM | [6] > 25 µM | [7] > 25 µM | [16] > 25 µM | [17] > 25 µM | [8] > 25 µM | [9] > 25 µM | [19] > 25 µM | [13] > 25 µM | [14] > 25 µM | [15] > 25 µM
